Results: PMC13266999, “Designing Antibiotics with Inherent Resistance to Efflux as a Strategy to Revive Discovery against Multidrug-Resistant Pathogens” (Journal of Medicinal Chemistry, 2026)
Values after ≈ are worked out from the molar mass of the structure shown. Where two headings read alike, the source gives them in different places.

Key:
Neisseria gonorrhoeae = assay: MIC; assay type: cell-based
[1] = test system: major human CYP isoforms other than CYP3A (midazolam substrate); assay: Cytochrome P450 inhibition panel; settings: human recombinant CYP enzymes in microsomal preparations
E. faecium = assay: MIC (microbroth dilution); assay type: cell-based, Enterococcus faecium; settings: for MIC: Enterococcus faecium
Procedure: (§1) All bacteria were maintained on tryptic soy agar (TSA), except Streptococcus spp., which were maintained on Columbia agar plates containing 5% horse blood. All bacterial assays were carried out in tryptic soy broth (TSB), except for Streptococcus spp. which were grown in cation-adjusted Mueller Hinton broth containing 2.5% lysed horse blood. Bacteria were grown to stationary phase in liquid culture overnight, with shaking at 200 rpm, before being back diluted to the relevant starting concentration for each assay below. MICs were measured by the microbroth dilution method. […] Absorbance at OD600 was read on a CLARIOstar spectrophotometer (BMG Labtech) and the MIC was defined as the minimum concentration of compound where no visible growth was detected. The compounds were prepared as a DMSO stock and equivalent concentrations of DMSO had no effect on bacterial growth. MICs were also performed in the presence of the outer membrane permeator, polymyxin b nonapeptide (PMBN) following the same MIC method but with the following variation. The 2-fold dilution series of compound was prepared as above, then 50 μL of PMBN at a final concentration of 30 μg/mL was added to relevant wells, while 50 μL/well of blank media was added to the remaining wells. Bacteria were then added at 50 μL/well for a starting concentration as above. Thirty μg/mL of PMBN had no effect on bacterial growth. The MICs were read and defined as above. All animal procedures were performed by the contract research organization Pharmacology Discovery Services Taiwan in accordance with the Guide for the Care and Use of Laboratory Animals. The procedures were approved by the Institutional Ethics Committee of Pharmacology Discovery Services Taiwan, Ltd. (approval no. AB127662), in compliance with animal welfare legislation in Taiwan.

S. epidermidis = assay: MIC (microbroth dilution); assay type: cell-based, Staphylococcus epidermidis; settings: Staphylococcus epidermidis, read-out: MIC
Procedure: as §1, with “All bacterial assays were carried out in tryptic soy broth (TSB), except for Streptococcus spp. which were grown in cation-adjusted Mueller Hinton broth containing 2.5% lysed horse blood.” left out, “The compounds were prepared as a DMSO stock and equivalent concentrations of DMSO had no effect on bacterial growth.” left out, “Thirty μg/mL of PMBN had no effect on bacterial growth.” left out

[2] = test system: Staphylococcus epidermidis, S. hemolyticus and S. saprophyticus; assay: MIC, extended Gram-positive panel (grouped species); assay type: cell-based, Staphylococcus spp.
Procedure: as §1, with “Thirty μg/mL of PMBN had no effect on bacterial growth.” left out, “All animal procedures were performed by the contract research organization Pharmacology Discovery Services Taiwan in accordance with the Guide for the Care and Use of Laboratory Animals. The procedures were approved by the Institutional Ethics Committee of Pharmacology Discovery Services Taiwan, Ltd. (approval no. AB127662), in compliance with animal welfare legislation in Taiwan.” left out

## C[C@H]1COc2c(N3CC[C@@H](Nc4ncccn4)C3)c(F)cc3c(=O)c(C(=O)O)cn1c23 [Compound 46, (S)-9-Fluoro-3-methyl-7-oxo-10-((R)-3-(pyrimidin-2-ylamino)pyrrolidin-1-yl)-2,3-dihydro-7H-[1,4]oxazino[2,3,4-ij]quinoline-6-carboxylic acid]
Neisseria gonorrhoeae; 2007NG046
  MIC: 4 µg/mL (≈ 9.4 µM)
Neisseria gonorrhoeae; 2008NG057
  MIC: 2 µg/mL (≈ 4.7 µM)
Neisseria gonorrhoeae; 2008NG097
  MIC: 2 µg/mL (≈ 4.7 µM)
Neisseria gonorrhoeae; 2009NG514
  MIC: 2 µg/mL (≈ 4.7 µM)
Neisseria gonorrhoeae; 2010NG122
  MIC: 2 µg/mL (≈ 4.7 µM)
Neisseria gonorrhoeae; ATCC49226, ATCC 49226
  MIC: ≤ 0.03 µg/mL
Neisseria gonorrhoeae; ATCC700825, ATCC 700825
  MIC: ≤ 0.03 µg/mL
Neisseria gonorrhoeae; BAA1833, BAA-1833
  MIC: ≤ 0.03 µg/mL
Neisseria gonorrhoeae; BAA1838, BAA-1838
  MIC: ≤ 0.03 µg/mL
Neisseria gonorrhoeae; CCUG57595, CCUG 57595
  MIC: ≤ 0.03 µg/mL
Neisseria gonorrhoeae; CCUG57596, CCUG 57596
  MIC: 0.125 µg/mL (≈ 0.294 µM)
Neisseria gonorrhoeae; CCUG57597, CCUG 57597
  MIC: 2 µg/mL (≈ 4.7 µM)
Neisseria gonorrhoeae; CCUG57598, CCUG 57598
  MIC: 2 µg/mL (≈ 4.7 µM)
Neisseria gonorrhoeae; CCUG57599, CCUG 57599
  MIC: 0.5 µg/mL (≈ 1.18 µM)
Neisseria gonorrhoeae; CCUG57600, CCUG 57600
  MIC: 1 µg/mL (≈ 2.35 µM)
Neisseria gonorrhoeae; CCUG57601, CCUG 57601
  MIC: ≤ 0.03 µg/mL
Neisseria gonorrhoeae; CCUG57602, CCUG 57602
  MIC: 0.06 µg/mL (≈ 0.141 µM)
Neisseria gonorrhoeae; FDA-CDC AR-BANK#0165
  MIC: 2 µg/mL (≈ 4.7 µM)
Neisseria gonorrhoeae; FDA-CDC AR-BANK#0166
  MIC: 2 µg/mL (≈ 4.7 µM)
Neisseria gonorrhoeae; FDA-CDC AR-BANK#0167
  MIC: ≤ 0.03 µg/mL
Neisseria gonorrhoeae; FDA-CDC AR-BANK#0168
  MIC: 1 µg/mL (≈ 2.35 µM)
Neisseria gonorrhoeae; FDA-CDC AR-BANK#0169
  MIC: 2 µg/mL (≈ 4.7 µM)
Neisseria gonorrhoeae; FDA-CDC AR-BANK#0170
  MIC: 2 µg/mL (≈ 4.7 µM)
Neisseria gonorrhoeae; FDA-CDC AR-BANK#0171
  MIC: 1 µg/mL (≈ 2.35 µM)
Neisseria gonorrhoeae; FDA-CDC AR-BANK#0172
  MIC: 1 µg/mL (≈ 2.35 µM)
Neisseria gonorrhoeae; FDA-CDC AR-BANK#0173
  MIC: 2 µg/mL (≈ 4.7 µM)
Neisseria gonorrhoeae; FDA-CDC AR-BANK#0174
  MIC: 2 µg/mL (≈ 4.7 µM)
Neisseria gonorrhoeae; FDA-CDC AR-BANK#0175
  MIC: ≤ 0.03 µg/mL
Neisseria gonorrhoeae; FDA-CDC AR-BANK#0176
  MIC: 2 µg/mL (≈ 4.7 µM)
Neisseria gonorrhoeae; FDA-CDC AR-BANK#0177
  MIC: ≤ 0.03 µg/mL
Neisseria gonorrhoeae; FDA-CDC AR-BANK#0178
  MIC: 2 µg/mL (≈ 4.7 µM)
Neisseria gonorrhoeae; FDA-CDC AR-BANK#0179
  MIC: ≤ 0.03 µg/mL
Neisseria gonorrhoeae; FDA-CDC AR-BANK#0180
  MIC: 2 µg/mL (≈ 4.7 µM)
Neisseria gonorrhoeae; FDA-CDC AR-BANK#0181
  MIC: ≤ 0.03 µg/mL
Neisseria gonorrhoeae; FDA-CDC AR-BANK#0182
  MIC: 2 µg/mL (≈ 4.7 µM)
Neisseria gonorrhoeae; FDA-CDC AR-BANK#0183
  MIC: 2 µg/mL (≈ 4.7 µM)
Neisseria gonorrhoeae; FDA-CDC AR-BANK#0184
  MIC: 2 µg/mL (≈ 4.7 µM)
Neisseria gonorrhoeae; FDA-CDC AR-BANK#0185
  MIC: 2 µg/mL (≈ 4.7 µM)
Neisseria gonorrhoeae; FDA-CDC AR-BANK#0186
  MIC: 1 µg/mL (≈ 2.35 µM)
Neisseria gonorrhoeae; FDA-CDC AR-BANK#0187
  MIC: 2 µg/mL (≈ 4.7 µM)
Neisseria gonorrhoeae; FDA-CDC AR-BANK#0188
  MIC: 1 µg/mL (≈ 2.35 µM)
Neisseria gonorrhoeae; FDA-CDC AR-BANK#0189
  MIC: 2 µg/mL (≈ 4.7 µM)
Neisseria gonorrhoeae; FDA-CDC AR-BANK#0190
  MIC: 2 µg/mL (≈ 4.7 µM)
Neisseria gonorrhoeae; FDA-CDC AR-BANK#0191
  MIC: 2 µg/mL (≈ 4.7 µM)
Neisseria gonorrhoeae; FDA-CDC AR-BANK#0192
  MIC: 2 µg/mL (≈ 4.7 µM)
Neisseria gonorrhoeae; FDA-CDC AR-BANK#0193
  MIC: ≤ 0.03 µg/mL
Neisseria gonorrhoeae; FDA-CDC AR-BANK#0194
  MIC: ≤ 0.03 µg/mL
Neisseria gonorrhoeae; FDA-CDC AR-BANK#0195
  MIC: 2 µg/mL (≈ 4.7 µM)
Neisseria gonorrhoeae; FDA-CDC AR-BANK#0196
  MIC: 2 µg/mL (≈ 4.7 µM)
Neisseria gonorrhoeae; FDA-CDC AR-BANK#0197
  MIC: 2 µg/mL (≈ 4.7 µM)
Neisseria gonorrhoeae; FDA-CDC AR-BANK#0198
  MIC: 2 µg/mL (≈ 4.7 µM)
Neisseria gonorrhoeae; FDA-CDC AR-BANK#0199
  MIC: ≤ 0.03 µg/mL
Neisseria gonorrhoeae; FDA-CDC AR-BANK#0200
  MIC: 2 µg/mL (≈ 4.7 µM)
Neisseria gonorrhoeae; FDA-CDC AR-BANK#0201
  MIC: 2 µg/mL (≈ 4.7 µM)
Neisseria gonorrhoeae; FDA-CDC AR-BANK#0202
  MIC: ≤ 0.03 µg/mL
Neisseria gonorrhoeae; FDA-CDC AR-BANK#0203
  MIC: 2 µg/mL (≈ 4.7 µM)
Neisseria gonorrhoeae; FDA-CDC AR-BANK#0204
  MIC: 2 µg/mL (≈ 4.7 µM)
Neisseria gonorrhoeae; FDA-CDC AR-BANK#0205
  MIC: 2 µg/mL (≈ 4.7 µM)
Neisseria gonorrhoeae; FDA-CDC AR-BANK#0206
  MIC: 2 µg/mL (≈ 4.7 µM)
Neisseria gonorrhoeae; FDA-CDC AR-BANK#0207
  MIC: 2 µg/mL (≈ 4.7 µM)
Neisseria gonorrhoeae; FDA-CDC AR-BANK#0208
  MIC: 2 µg/mL (≈ 4.7 µM)
Neisseria gonorrhoeae; FDA-CDC AR-BANK#0209
  MIC: 2 µg/mL (≈ 4.7 µM)
Neisseria gonorrhoeae; FDA-CDC AR-BANK#0210
  MIC: 2 µg/mL (≈ 4.7 µM)
Neisseria gonorrhoeae; FDA-CDC AR-BANK#0211
  MIC: 2 µg/mL (≈ 4.7 µM)
Neisseria gonorrhoeae; FDA-CDC AR-BANK#0212
  MIC: 2 µg/mL (≈ 4.7 µM)
Neisseria gonorrhoeae; FDA-CDC AR-BANK#0213
  MIC: 1 µg/mL (≈ 2.35 µM)
Neisseria gonorrhoeae; FDA-CDC AR-BANK#0214
  MIC: 2 µg/mL (≈ 4.7 µM)
Neisseria gonorrhoeae; NCTC13477, NCTC 13477
  MIC: ≤ 0.125 µg/mL
Neisseria gonorrhoeae; NCTC13817, NCTC 13817
  MIC: 0.5 µg/mL (≈ 1.18 µM)
Neisseria gonorrhoeae; NCTC13818, NCTC 13818
  MIC: 2 µg/mL (≈ 4.7 µM)
Neisseria gonorrhoeae; NCTC13819, NCTC 13819
  MIC: 2 µg/mL (≈ 4.7 µM)
Neisseria gonorrhoeae; NCTC13820, NCTC 13820
  MIC: 2 µg/mL (≈ 4.7 µM)
Neisseria gonorrhoeae; NCTC13821, NCTC 13821
  MIC: 2 µg/mL (≈ 4.7 µM)
Neisseria gonorrhoeae; NCTC13822, NCTC 13822
  MIC: 2 µg/mL (≈ 4.7 µM)
Neisseria gonorrhoeae; TCDC-NG08107
  MIC: 2 µg/mL (≈ 4.7 µM)
Neisseria gonorrhoeae; panel of 75 clinical isolates
  MIC90: 2 µg/mL (≈ 4.7 µM)
Neisseria gonorrhoeae; several isolates of the panel
  MIC: 0.03 to 0.5 µg/mL (≈ 0.0705 to 1.18 µM)
[1]
  inhibition at 10 µM: ≤ 13%

## Cc1cc(C)nc(N[C@@H]2CCN(c3c(F)cc4c(=O)c(C(=O)O)cn5c4c3OC[C@@H]5C)C2)n1 [Compound 50, (S)-10-((R)-3-((4,6-Dimethylpyrimidin-2-yl)amino)pyrrolidin-1-yl)-9-fluoro-3-methyl-7-oxo-2,3-dihydro-7H-[1,4]oxazino[2,3,4-ij]quinoline-6-carboxylic acid]
E. faecium; ATCC19434, ATCC 19434, read-out: MIC
  MIC: 1 µg/mL (≈ 2.21 µM)
E. faecium; ATCC700221, VanA (ATCC 700221), read-out: MIC
  MIC: 0.5 µg/mL (≈ 1.1 µM)
E. faecium; BAA2320, VanA (BAA-2320), read-out: MIC
  MIC: 1 µg/mL (≈ 2.21 µM)
E. faecium; CCUG56431, VanB (CCUG 56431), read-out: MIC
  MIC: 0.25 µg/mL (≈ 0.551 µM)
E. faecium; CCUG56858
  MIC: 0.125 µg/mL (≈ 0.276 µM)
E. faecium; CCUG58354, VanD (CCUG 58354), read-out: MIC
  MIC: 0.25 µg/mL (≈ 0.551 µM)
E. faecium; CCUG59167, VanA (TUH44-29; CCUG 59167), read-out: MIC
  MIC: 1 µg/mL (≈ 2.21 µM)
E. faecium; including VanA, VanB, and VanD phenotypes
  MIC range: 0.125 to 1 µg/mL
S. epidermidis; ATCC12228, ATCC 12228
  MIC: 0.03 µg/mL (≈ 0.0662 µM)
S. epidermidis; ATCC 51625 / MRSE, MRSE (ATCC 51625)
  MIC: 0.03 µg/mL (≈ 0.0662 µM)
S. epidermidis; NRS101
  MIC: 0.03 µg/mL (≈ 0.0662 µM)
S. epidermidis; GIS (NRS7)
  MIC: 0.5 µg/mL (≈ 1.1 µM)
S. epidermidis; GIS (NRS8)
  MIC: 1 µg/mL (≈ 2.21 µM)
S. epidermidis; GIS (NRS60)
  MIC: 0.06 µg/mL (≈ 0.132 µM)
[2]
  MIC range: 0.03125 to 0.06 µg/mL
